Laboratory results reported in ChEMBL document CHEMBL1135251, “Oxime derivatives of sordaricin as potent antifungal agents” (Bioorg Med Chem Lett, 2002).
In brackets after ≈: the same amount, converted by molar mass.

How the values were obtained:
Candida albicans = assay: Minimum inhibitory concentration against Candida albicans; format: functional
Nakaseomyces glabratus = assay: Minimum inhibitory concentration against Candida glabrata; format: functional
HEp-2 = assay: Cytotoxicity was evaluated against Hep-2 cells in vitro; format: functional; conditions: Homo sapiens
[1] = Therapeutic index (CC50/MIC) was determined
Cryptococcus neoformans = assay: In vitro minimum inhibitory concentration against […]

| Structure (SMILES) | MIC (Candida albicans) | MIC (Nakaseomyces glabratus) | MIC (Cryptococcus neoformans) | CC50 (HEp-2) | Therapeutic index [1] |
| --- | --- | --- | --- | --- | --- |
| CC(C)C1=CC2CC3(C=O)[C@@H]4CC[C@@H](C)[C@H]4CC2(CO)[C@]13C(=O)O | > 128 µg/mL | > 128 µg/mL | – | – | – |
| CC(C)C1=CC2CC3(C=O)[C@@H]4CC[C@@H](C)[C@H]4CC2(/C=N/OCCCC(F)(F)F)[C@]13C(=O)O | 1 µg/mL (≈ 2.2 µM) | 4 µg/mL (≈ 8.78 µM) | – | 1.9 µg/mL (≈ 4.17 µM) | 1.9 |
| CCOCCO/N=C/C12C[C@@H]3[C@H](C)CC[C@H]3C3(C=O)CC1C=C(C(C)C)[C@@]23C(=O)O | 16 µg/mL (≈ 38.3 µM) | 16 µg/mL (≈ 38.3 µM) | – | 22 µg/mL (≈ 52.7 µM) | 1.4 |
| CC(C)C1=CC2CC3(C=O)[C@@H]4CC[C@@H](C)[C@H]4CC2(C2=NOC(CC#N)C2)[C@]13C(=O)O (stereo not given in full) | 128 µg/mL (≈ 312 µM) | 128 µg/mL (≈ 312 µM) | – | – | – |
| CC(C)C1=CC2CC3(C=O)[C@@H]4CC[C@@H](C)[C@H]4CC2(/C=N/OCC2CCCCO2)[C@]13C(=O)O (stereo not given in full) | 2 µg/mL (≈ 4.51 µM) | 8 µg/mL (≈ 18 µM) | – | 9 µg/mL (≈ 20.3 µM) | 4.5 |
| CCOC(=O)C1CC(C23C[C@@H]4[C@H](C)CC[C@H]4C4(C=O)CC2C=C(C(C)C)[C@@]34C(=O)O)=NO1 (stereo not given in full) | 8 µg/mL (≈ 18 µM) | 4 µg/mL (≈ 9.02 µM) | – | – | – |
| CCC(C)(C)CC1CC(C23C[C@@H]4[C@H](C)CC[C@H]4C4(C=O)CC2C=C(C(C)C)[C@@]34C(=O)O)=NO1 (stereo not given in full) | 4 µg/mL (≈ 8.78 µM) | 1 µg/mL (≈ 2.19 µM) | – | – | – |
| CC(C)CCO/N=C/C12C[C@@H]3[C@H](C)CC[C@H]3C3(C=O)CC1C=C(C(C)C)[C@@]23C(=O)O | 0.5 µg/mL (≈ 1.2 µM) | 1 µg/mL (≈ 2.41 µM) | – | 4 µg/mL (≈ 9.63 µM) | 8 |
| CC(C)C1=CC2CC3(C=O)[C@@H]4CC[C@@H](C)[C@H]4CC2(C2=NOC4C2CCN4Cc2ccccc2)[C@]13C(=O)O (stereo not given in full) | > 128 µg/mL | > 128 µg/mL | – | – | – |
| COCCOCCO/N=C/C12C[C@@H]3[C@H](C)CC[C@H]3C3(C=O)CC1C=C(C(C)C)[C@@]23C(=O)O | 8 µg/mL (≈ 17.9 µM) | 128 µg/mL (≈ 286 µM) | – | 46 µg/mL (≈ 103 µM) | 5.7 |
| CC(C)C1=CC2CC3(C=O)[C@@H]4CC[C@@H](C)[C@H]4CC2(C2=NOC4CCCCC24)[C@]13C(=O)O (stereo not given in full) | > 128 µg/mL | 1 µg/mL (≈ 2.35 µM) | – | – | – |
| CCCCC1CC(C23C[C@@H]4[C@H](C)CC[C@H]4C4(C=O)CC2C=C(C(C)C)[C@@]34C(=O)O)=NO1 (stereo not given in full) | 2 µg/mL (≈ 4.68 µM) | 2 µg/mL (≈ 4.68 µM) | – | – | – |
| CC(C)C1=CC2CC3(C=O)[C@@H]4CC[C@@H](C)[C@H]4CC2(c2cc(-c4ccccc4)on2)[C@]13C(=O)O | 8 µg/mL (≈ 18 µM) | 0.25 µg/mL (≈ 0.561 µM) | – | – | – |
| CC(C)C1=CC2CC3(C=O)[C@@H]4CC[C@@H](C)[C@H]4CC2(C2=NOC(C4CCCCC4)C2)[C@]13C(=O)O (stereo not given in full) | 2 µg/mL (≈ 4.41 µM) | 2 µg/mL (≈ 4.41 µM) | – | – | – |
| CC(C)C1=CC2CC3(C=O)[C@@H]4CC[C@@H](C)[C@H]4CC2(C2=NOC(c4ccccc4)C2)[C@]13C(=O)O (stereo not given in full) | 16 µg/mL (≈ 35.7 µM) | 2 µg/mL (≈ 4.47 µM) | – | – | – |
| CC(C)C1=CC2CC3(C=O)[C@@H]4CC[C@@H](C)[C@H]4CC2(C2=NOC(CC(C)(C)C)C2)[C@]13C(=O)O (stereo not given in full) | 2 µg/mL (≈ 4.53 µM) | 1 µg/mL (≈ 2.26 µM) | – | – | – |
| CC(C)C1=CC2CC3(C=O)[C@@H]4CC[C@@H](C)[C@H]4CC2(C2=NOC(CN4CCOCC4)C2)[C@]13C(=O)O (stereo not given in full) | 16 µg/mL (≈ 34 µM) | > 128 µg/mL | – | – | – |
| CC(C)C1=CC2CC3(C=O)[C@@H]4CC[C@@H](C)[C@H]4CC2(C2=NOC(CO)C2)[C@]13C(=O)O (stereo not given in full) | > 128 µg/mL | > 128 µg/mL | – | – | – |
| CC(C)C1=CC2CC3(C=O)[C@@H]4CC[C@@H](C)[C@H]4CC2(C2=NOC4OCCC24)[C@]13C(=O)O (stereo not given in full) | > 128 µg/mL | 8 µg/mL (≈ 19.3 µM) | – | – | – |
| CC(C)C1=CC2CC3(C=O)[C@@H]4CC[C@@H](C)[C@H]4CC2(c2cc(CO)on2)[C@]13C(=O)O | > 128 µg/mL | > 128 µg/mL | – | – | – |
| Cc1noc(C)c1CO/N=C/C12C[C@@H]3[C@H](C)CC[C@H]3C3(C=O)CC1C=C(C(C)C)[C@@]23C(=O)O | > 128 µg/mL | 128 µg/mL (≈ 282 µM) | – | – | – |
| Cc1ccccc1CO/N=C/C12C[C@@H]3[C@H](C)CC[C@H]3C3(C=O)CC1C=C(C(C)C)[C@@]23C(=O)O | 16 µg/mL (≈ 35.6 µM) | 16 µg/mL (≈ 35.6 µM) | – | – | – |

Continued by falling MIC (Candida albicans), values first:

| MIC (Candida albicans) | MIC (Nakaseomyces glabratus) | MIC (Cryptococcus neoformans) | Structure (SMILES) | CC50 (HEp-2) | Therapeutic index [1] |
| --- | --- | --- | --- | --- | --- |
| 16 µg/mL (≈ 32.5 µM) | > 128 µg/mL | – | COC1C(O)[C@H](O)[C@H](OC[C@@]23C[C@@H]4[C@H](C)CC[C@H]4[C@@]4(C=O)CC2C=C(C(C)C)[C@@]34C(=O)O)O[C@@H]1C (single isomer, unassigned) [SORDARIN] | 167 µg/mL (≈ 339 µM) | 10 |
| 8 µg/mL (≈ 20.1 µM) | 32 µg/mL (≈ 80.5 µM) | – | CC#CCO/N=C/C12C[C@@H]3[C@H](C)CC[C@H]3C3(C=O)CC1C=C(C(C)C)[C@@]23C(=O)O | 16 µg/mL (≈ 40.3 µM) | 2 |
| 2 µg/mL (≈ 4.26 µM) | 8 µg/mL (≈ 17 µM) | – | CC(C)C1=CC2CC3(C=O)[C@@H]4CC[C@@H](C)[C@H]4CC2(/C=N/OCc2ccccc2Cl)[C@]13C(=O)O | 1.4 µg/mL (≈ 2.98 µM) | 0.7 |
| 1 µg/mL (≈ 2.26 µM) | 4 µg/mL (≈ 9.06 µM) | – | CC(C)CCC1CC(C23C[C@@H]4[C@H](C)CC[C@H]4C4(C=O)CC2C=C(C(C)C)[C@@]34C(=O)O)=NO1 (stereo not given in full) | – | – |
| 1 µg/mL (≈ 2.25 µM) | 8 µg/mL (≈ 18 µM) | – | CCCCOC1CC(C23C[C@@H]4[C@H](C)CC[C@H]4C4(C=O)CC2C=C(C(C)C)[C@@]34C(=O)O)=NO1 (stereo not given in full) | – | – |
| 1 µg/mL (≈ 2.42 µM) | 1 µg/mL (≈ 2.42 µM) | – | CC(C)=CCO/N=C/C12C[C@@H]3[C@H](C)CC[C@H]3C3(C=O)CC1C=C(C(C)C)[C@@]23C(=O)O | 4.5 µg/mL (≈ 10.9 µM) | 4.5 |
| 0.5 µg/mL (≈ 1.25 µM) | 0.5 µg/mL (≈ 1.25 µM) | – | CC(C)CO/N=C/C12C[C@@H]3[C@H](C)CC[C@H]3C3(C=O)CC1C=C(C(C)C)[C@@]23C(=O)O | 35 µg/mL (≈ 87.2 µM) | 70 |
| 0.5 µg/mL (≈ 1.16 µM) | 1 µg/mL (≈ 2.33 µM) | – | CC(C)C1=CC2CC3(C=O)[C@@H]4CC[C@@H](C)[C@H]4CC2(/C=N/OC2CCCCO2)[C@]13C(=O)O (stereo not given in full) | 33 µg/mL (≈ 76.8 µM) | 66 |
| 0.25 µg/mL (≈ 0.602 µM) | 0.5 µg/mL (≈ 1.2 µM) | – | CC[C@@H](C)CO/N=C/C12C[C@@H]3[C@H](C)CC[C@H]3C3(C=O)CC1C=C(C(C)C)[C@@]23C(=O)O | 2.7 µg/mL (≈ 6.5 µM) | 11 |
| 0.25 µg/mL (≈ 0.566 µM) | 1 µg/mL (≈ 2.26 µM) | – | CC(C)C1=CC2CC3(C=O)[C@@H]4CC[C@@H](C)[C@H]4CC2(/C=N/OCC2CCCCC2)[C@]13C(=O)O | 0.6 µg/mL (≈ 1.36 µM) | 2.4 |
| 0.06 µg/mL (≈ 0.144 µM) | 0.06 µg/mL (≈ 0.144 µM) | 64 µg/mL (≈ 154 µM) | CCCCCO/N=C/C12C[C@@H]3[C@H](C)CC[C@H]3C3(C=O)CC1C=C(C(C)C)[C@@]23C(=O)O | 5.5 µg/mL (≈ 13.2 µM) | 92 |
